The values below come from patent publication US20250195453A1, “NOVEL ANTIBIOTIC WITH QUORUM SENSING INHIBITOR ACTIVITY” (priority 2022, published 2025).

One experiment deals with C. violaceum. As to the kind of experiment: Viability assay (resazurin) of C. violaceum in parallel to quorum sensing assay. The format is cell-based, Chromobacterium violaceum. Particulars: assays in parallel with the quorum sensing assays. On the procedure: To ascertain that reduced OD562 signal is due to inhibition of quorum sensing and not merely due to reduced viability of bacteria, a viability assay may be done in parallel to the quorum sensing assay. To assess viability of bacteria, C. violaceum bacteria are grown o/n at 27° C. in TSB medium. The bacteria are diluted 1000× in TSB medium and grown until OD600=0.5-0.7. The bacteria are resuspended in TSB medium containing compound and incubated at 27° C. for 20 h. Bacteria are collected by centrifugation for 10 min at 3000 rpm. Supernatant is aspirated and resazurin (150 μg/mL in physiological salt solution) is added. Plates are incubated for another 45 min at 27° C. and fluorescence is measured by excitation at 540 nm and emission at 590 nm. If the fluorescent signal is less than 70% of the fluorescent signal of control untreated bacteria, the sample is scored as having an effect on viability of the bacteria.
C. violaceum bacteria were grown o/n in tryptic soy broth at 27° C. The bacteria were diluted in TSB and grown until OD600=0.5-0.7. […] The plates were centrifuged again for 10 min at 3000 rpm and 100 μL of the supernatant containing the violacein was transferred to a new 96-well plate and the violacein production was quantified by measuring the OD562 on an ASYS expert plus microplate reader. […]
(Alamar Blue is a resazurin reagent that responds to reducing activity.)

Experiment [1] deals with violacein production in C. violaceum. As to the kind of experiment: Quorum sensing assay: violacein production in C. violaceum. The format is cell-based, Chromobacterium violaceum. The conditions noted are these: funalenone up to 1 mM.
Experimental: C. violaceum bacteria were grown o/n in tryptic soy broth at 27° C. The bacteria were diluted in TSB and grown until OD600=0.5-0.7. Bacteria were diluted 1:1000 and 50 μL bacterial suspension was transferred to 96-well plates containing 50 μL fungal filtrate, extract or purified compound in a range of concentrations. […] Plates were incubated for 20 h at 27° C. while shaking at 180 rpm. Plates were centrifuged for 10 min at 3000 rpm to precipitate the violacein. Supernatant was aspirated and the pellet was resuspended in 200 μL 96% ethanol. The plates were centrifuged again for 10 min at 3000 rpm and 100 μL of the supernatant containing the violacein was transferred to a new 96-well plate and the violacein production was quantified by measuring the OD562 on an ASYS expert plus microplate reader.
In a further experiment the test system is WT-GFP. The format is cell-based, Pseudomonas aeruginosa (PAO1). The conditions noted are these: funalenone concentrations up to 500 μM. As to the method:
(§1) Quorum sensing activity in PAO1 cells can be assessed by a the person skilled in the art, preferably by a quorum sensing reporter assay as exemplified herein. PAO1 reporters express green fluorescent protein under the control of the lasB promoter, the rhlA promoter, the pqsA promoter or a constitutive promoter, PA1/04/03. Reporter bacteria are inoculated in AB minimal media supplemented with 0.5% glucose and 0.5% casamino acids. Cultures are diluted in physiological salt solution to an OD450=0.1-0.2 before addition to AB medium with a range of concentrations of compound. The GFP fluorescence (excitation 485 nm, emission 535 nm) and absorbance (600 nm) are determined every 15 min for 15 h at 34° C. IC50 values are calculated based on the maximum slope of GFP/OD. If the IC50 on reporter lines is less than half of the IC50 on control bacteria, the compound is scored as quorum sensing inhibitor.
(§2) To test the potential of paecilomycone as quorum sensing inhibitor in more clinically relevant bacteria, the effect on P. aeruginosa (PAO1) was tested. […] To correct for potential effects on bacterial growth, the OD600 was determined in parallel with GFP fluorescence intensity and RFU/OD was plotted.

In another experiment the test system is lasB-GFP reporter. Kind of experiment: PAO1 quorum sensing reporter assay, lasB-GFP. Type of experiment: cell-based, Pseudomonas aeruginosa (PAO1). The conditions noted are these: funalenone concentrations up to 500 μM. On the procedure: as §1, §2
For orientation: Reporter assays use an easily measured gene product as a stand-in for the process of interest.

Another experiment deals with rhlA-GFP reporter. Kind of experiment: PAO1 quorum sensing reporter assay, rhlA-GFP. Particulars: funalenone concentrations up to 500 μM. The format is cell-based, Pseudomonas aeruginosa (PAO1). On the procedure: as §1, §2
In a further experiment the test system is pqsA-GFP reporter. As to the kind of experiment: PAO1 quorum sensing reporter assay, pqsA-GFP. The format is cell-based, Pseudomonas aeruginosa (PAO1). The conditions noted are these: funalenone concentrations up to 500 μM. On the procedure:
as §1, §2

For `COC1=C(O)c2c(O)cc(C)c3c(O)cc(O)c(c23)C1=O` [funalenone], the “Effect on cell viability of C. violaceum” value with C. violaceum is “did not affect cell viability”. For the same molecule, the “Inhibition of violacein production” value in experiment [1] was “did not inhibit violacein production”. For the same molecule, in the experiment with WT-GFP, the “Effect on control WT-GFP reporter” value was “no effects on quorum sensing”. For the same molecule, in the experiment with lasB-GFP reporter, the “Effect on quorum sensing, lasB-GFP reporter” value was “no effects on quorum sensing”. Further, in the experiment on rhlA-GFP reporter, the “Effect on quorum sensing, rhlA-GFP reporter” value is “no effects on quorum sensing”. In addition, in the experiment on pqsA-GFP reporter, the “Effect on quorum sensing, pqsA-GFP reporter” value is listed as “no effects on quorum sensing”.
